Patent publication US4255585A, “Benzoheterocyclic derivatives of phenoxyacetic acid” (Centre European de Recherches Pharmacologique, priority 1975, dated 1981)
Read-outs that look alike come from different tables or passages of the source.

Experiments:
[1] = in vivo; conditions: for LD50 at 48 h: mouse, in vivo, po, read-out: LD 50 per os
Procedure: The three compounds were administered in the usual way to lots of 10 male mice (Swiss C.D.) of average weight 20 g. Mortality was assessed after 48 hours for toxicity per os.

[2] = Diuretic activity (diuresis, Na+, K+, uric acid excretion); format: in vivo, Male Swiss C.D. mice; conditions: mice; for Uricosuria (coefficient): uric acid by Caraway's method; for Diuresis (coefficient) / K+ (coefficient) / Na+ (coefficient) / Na+/K+: urine sampled 2 and 4 hours
Procedure: The three compounds were administered to Male Swiss C.D. mice of average weight 22 g. The animals were deprived of food and drink for 2 hours prior to treatment.
The animals were grouped two by two in cages where their metabolism is to be monitored. Sampling of the urine 2 and 4 hours after treatment. The experiments were made per lot of six pairs. The products were administered at constant volume.
The following determinations were made:
Na^+ and K^+ ions expressed in milliequivalents (Millival or M. Eq.) excreted in 2 or 4 hours (Eppendorf Flame Photometer);
uric acid excreted expressed in mg/2 or 4 hours determined by Caraway's method (Amer. J. Clin. Pathol. 1955. 25 840).
They are considered in the form of the coefficient: [formula]

[3] = male Swiss C.D. mice, per os, mortality after 48 hours

Which LD50 at 48 h [1, 3] does the source give for `O=C(O)COc1ccc(C(=O)c2cc3ccccc3o2)c(Cl)c1Cl` [Example 1, 4-(2-benzofuryl-keto)-2,3-dichloro-phenoxyacetic acid] here?
The LD50 at 48 h was < 1000 mg/kg.

What about the “Uricosuria (coefficient)” value ([2]; 100 mg/kg P.O.) of the same compound?
The value was 1.56.

What about the “Diuresis (coefficient)” value ([2]; 100 mg/kg P.O.) of the same compound?
Its value is 1.3.

And the “K+ (coefficient)” value ([2]; 100 mg/kg P.O.)?
Its value is 1.74.

What about the “Na+ (coefficient)” value ([2]; 100 mg/kg P.O.) of the same compound?
Its value is 1.52.

And the “Na+/K+” value ([2]; 100 mg/kg P.O.)?
Its value is 0.87.

For `O=C(O)COc1ccc(C(=O)c2cc3ccccc3s2)c(Cl)c1Cl` [Example 2, 4-(2-benzothienyl-keto)-2,3-dichloro-phenoxyacetic acid], which MLD per os [1, 3] is on record?
Its MLD per os is > 1000 mg/kg.

And the “Uricosuria (coefficient)” value ([2]; 100 mg/kg P.O.)?
The value was 1.05.

And the “Diuresis (coefficient)” value ([2]; 100 mg/kg P.O.)?
Its value is 1.2.

What about the “K+ (coefficient)” value ([2]; 100 mg/kg P.O.) of the same compound?
The value was 0.91.

What about the “Na+ (coefficient)” value ([2]; 100 mg/kg P.O.) of the same compound?
The value was 1.18.

What about the “Na+/K+” value ([2]; 100 mg/kg P.O.) of the same compound?
Its value is 1.29.

For `O=C(O)COc1ccc(C(=O)c2sc3ccccc3c2Cl)c(Cl)c1Cl` [Example 3, 4-[2-(3-chloro)-benzothienyl-keto]-2,3-dichloro-phenoxy acetic acid], which LD50 at 48 h [1] is on record?
Its LD50 at 48 h is > 1000 mg/kg.

And the “Uricosuria (coefficient)” value ([2]; 100 mg/kg P.O.)?
Its value is 1.26.

What about the “Diuresis (coefficient)” value ([2]; 100 mg/kg P.O.) of the same compound?
The value was 1.3.

What about the “K+ (coefficient)” value ([2]; 100 mg/kg P.O.) of the same compound?
Its value is 1.17.

And the “Na+ (coefficient)” value ([2]; 100 mg/kg P.O.)?
Its value is 1.29.

What about the “Na+/K+” value ([2]; 100 mg/kg P.O.) of the same compound?
The value was 1.10.

With `CCc1oc2ccccc2c1C(=O)c1cc(I)c(O)c(I)c1` [benziodarone, reference compound] as the compound, how does the “Uricosuria (coefficient)” value ([2]; 20 mg/kg P.O.) read?
The value was 1.44.

What does the source list for `C=C(CC)C(=O)c1ccc(OCC(=O)O)c(Cl)c1Cl` [ethacrynic acid, reference compound]?
LD50 at 48 h [1, 3]: 600 mg/kg; Uricosuria (coefficient) ([2]; 20 mg/kg P.O.): 1.27; Diuresis (coefficient) ([2]; 20 mg/kg P.O.): 2.4; K+ (coefficient) ([2]; 20 mg/kg P.O.): 1.48; Na+ (coefficient) ([2]; 20 mg/kg P.O.): 2.76; Na+/K+ ([2]; 20 mg/kg P.O.): 1.87

With `NS(=O)(=O)c1cc(C(=O)O)c(NCc2ccco2)cc1Cl` [furosemide, reference compound] as the compound, how does the “Uricosuria (coefficient)” value ([2]; 20 mg/kg P.O.) read?
Its value is 1.34.

And the “Diuresis (coefficient)” value ([2]; 20 mg/kg P.O.)?
The value was 3.0.

And the “K+ (coefficient)” value ([2]; 20 mg/kg P.O.)?
Its value is 1.51.

What about the “Na+ (coefficient)” value ([2]; 20 mg/kg P.O.) of the same compound?
The value was 4.28.

And the “Na+/K+” value ([2]; 20 mg/kg P.O.)?
The value was 2.83.
